Measured values from patent US8076487B2, “Pyridone derivative and herbicide” (Kumiai Chemical Industry Co., Ltd., priority 2006, dated 2011).

What was measured:
Format in all cases: in vivo
[1] = test system: green foxtail (Setaria viridis (L.) P. Beauv.); test: Test Example 3: herbicidal effect by application to upland field (foliage treatment); conditions: 14th day after application; for herbicidal effect (index), Green Foxtail: foliage treatment, plants grown two weeks, 1,000 g active ingredient per hectare; for herbicidal effect, Green Foxtail: foliage treatment, 1,000 g active ingredient per 1 hectare, greenhouse
Summary of the method: (§1)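 Dose 1,000 g active ingredient/ha, sprayed as diluted wettable powder over entire plants two weeks after sowing in field soil. Kept in greenhouse; herbicidal effect graded on a standard scale on day 14.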

[2] = test system: velvetleaf (Abutilon theophrasti medicus); test: as above; conditions: 14th day after application; for herbicidal effect (index), Velvetleaf: foliage treatment, plants grown two weeks, 1,000 g active ingredient per hectare; for herbicidal effect, Velvetleaf: foliage treatment, 1,000 g active ingredient per 1 hectare, greenhouse
Summary of the method: as §1

[3] = test system: slender amaranth (Amaranthus viridis L.); test: as above; conditions: 14th day after application; for herbicidal effect (index), Slender Amaranth: foliage treatment, plants grown two weeks, 1,000 g active ingredient per hectare; for herbicidal effect, Slender Amaranth: foliage treatment, 1,000 g active ingredient per 1 hectare, greenhouse
Summary of the method: as §1

[4] = test system: barnyardgrass (Echinochloa crus-galli (L.) P. Beauv. var. crus-galli); test: as above; conditions: 14th day after application; for herbicidal effect (index), Barnyardgrass: foliage treatment, plants grown two weeks, 1,000 g active ingredient per hectare; for herbicidal effect, Barnyardgrass: foliage treatment, 1,000 g active ingredient per 1 hectare, greenhouse
Summary of the method: as §1

[5] = test system: early watergrass (Echinochloa oryzicola Vasing); test: Test Example 1: herbicidal effect by soil application to paddy field; conditions: paddy field soil application; active ingredient 1,000 g per 1 hectare; wettable powder added dropwise to water surface the day after sowing; examined on the 21st day after application
Summary of the method: (§2)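 Under greenhouse conditions, seeds sown on puddled paddy soil in 100 cm2 pots under 3 cm of standing water received the test compound; injury was assessed with a standard scoring scheme three weeks (day 21) after treatment.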

[6] = test system: Japanese bulrush (Scirpus juncoides Roxb.); test: as above; conditions: paddy field soil application; active ingredient 1,000 g per 1 hectare; wettable powder added dropwise to water surface the day after sowing; examined on the 21st day after application
Summary of the method: as §2

[7] = test system: heartshape false pickerelweed (Monochoria vaginalis (Burm.f.) C.Presl); test: as above; conditions: paddy field soil application; active ingredient 1,000 g per 1 hectare; wettable powder added dropwise to water surface the day after sowing; examined on the 21st day after application
Summary of the method: as §2

[8] = test system: green foxtail (Setaria viridis (L.) P. Beauv.); test: Test Example 2: herbicidal effect by soil application to upland field; conditions: soil surface spray, upland field soil, 1,000 g active ingredient per hectare, 21st day after application
Summary of the method: (§3)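 Scoring on a standard scale took place 21 days after application, with plants kept in a greenhouse. Active ingredient (1,000 g/ha, as diluted wettable powder, 1,000 L/ha) was sprayed evenly onto soil directly after sowing and covering seeds.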

[9] = test system: velvetleaf (Abutilon theophrasti medicus); test: as above; conditions: soil surface spray, upland field soil, 1,000 g active ingredient per hectare, 21st day after application
Summary of the method: as §3

[10] = test system: slender amaranth (Amaranthus viridis L.); test: as above; conditions: soil surface spray, upland field soil, 1,000 g active ingredient per hectare, 21st day after application
Summary of the method: as §3

[11] = test system: barnyardgrass (Echinochloa crus-galli (L.) P. Beauv. var. crus-galli); test: as above; conditions: soil surface spray, upland field soil, 1,000 g active ingredient per hectare, 21st day after application
Summary of the method: as §3

SMILES	herbicidal effect (index), Green Foxtail [1]	herbicidal effect (index), Velvetleaf [2]	herbicidal effect (index), Slender Amaranth [3]	herbicidal effect (index), Barnyardgrass [4]	herbicidal effect, Echinochloa oryzicola Vasing [5]	herbicidal effect, Scirpus juncoides Roxb. [6]	herbicidal effect, Monochoria vaginalis (Burm. f.) C. Presl [7]	herbicidal effect (index), Green Foxtail [8]	herbicidal effect (index), Velvetleaf [9]	herbicidal effect (index), Slender Amaranth [10]	herbicidal effect (index), Barnyardgrass [11]	herbicidal effect, Green Foxtail [1]	herbicidal effect, Velvetleaf [2]	herbicidal effect, Slender Amaranth [3]	herbicidal effect, Barnyardgrass [4]
COCCOCCn1c(C(F)(F)F)ccc(C(=O)C2=C(O)CCCC2=O)c1=O [I-34]	5 (90% or more of herbicidal effect and crop phytotoxicity)	5 (90% or more of herbicidal effect and crop phytotoxicity)	5 (90% or more of herbicidal effect and crop phytotoxicity)	5 (90% or more of herbicidal effect and crop phytotoxicity)	5 (90% or more of herbicidal effect and crop phytotoxicity)	5 (90% or more of herbicidal effect and crop phytotoxicity)	5 (90% or more of herbicidal effect and crop phytotoxicity)	5 (90% or more of herbicidal effect and crop phytotoxicity)	5 (90% or more of herbicidal effect and crop phytotoxicity)	5 (90% or more of herbicidal effect and crop phytotoxicity)	5 (90% or more of herbicidal effect and crop phytotoxicity)	–	–	–	–
O=C1CCCC(O)=C1C(=O)c1ccc(C(F)(F)F)n(Cc2ccccc2)c1=O [I-114]	–	–	–	–	5 (90% or more of herbicidal effect and crop phytotoxicity)	5 (90% or more of herbicidal effect and crop phytotoxicity)	5 (90% or more of herbicidal effect and crop phytotoxicity)	4 (70 to less than 90% of herbicidal effect and crop phytotoxicity)	5 (90% or more of herbicidal effect and crop phytotoxicity)	5 (90% or more of herbicidal effect and crop phytotoxicity)	5 (90% or more of herbicidal effect and crop phytotoxicity)	4 (70 to less than 90% of herbicidal effect and crop phytotoxicity)	5 (90% or more of herbicidal effect and crop phytotoxicity)	5 (90% or more of herbicidal effect and crop phytotoxicity)	5 (90% or more of herbicidal effect and crop phytotoxicity)
Cn1c(C(F)(F)F)ccc(C(=O)C2=C(O)C3CCC(C3)C2=O)c1=O (stereo not shown) [III-1]	–	–	–	–	5 (90% or more of herbicidal effect and crop phytotoxicity)	5 (90% or more of herbicidal effect and crop phytotoxicity)	5 (90% or more of herbicidal effect and crop phytotoxicity)	5 (90% or more of herbicidal effect and crop phytotoxicity)	5 (90% or more of herbicidal effect and crop phytotoxicity)	5 (90% or more of herbicidal effect and crop phytotoxicity)	5 (90% or more of herbicidal effect and crop phytotoxicity)	5 (90% or more of herbicidal effect and crop phytotoxicity)	5 (90% or more of herbicidal effect and crop phytotoxicity)	5 (90% or more of herbicidal effect and crop phytotoxicity)	4 (70 to less than 90% of herbicidal effect and crop phytotoxicity)
N#Cc1ccc(-n2c(C(F)(F)F)ccc(C(=O)C3=C(O)CCCC3=O)c2=O)cc1 [I-95]	5 (90% or more of herbicidal effect and crop phytotoxicity)	5 (90% or more of herbicidal effect and crop phytotoxicity)	5 (90% or more of herbicidal effect and crop phytotoxicity)	5 (90% or more of herbicidal effect and crop phytotoxicity)	5 (90% or more of herbicidal effect and crop phytotoxicity)	5 (90% or more of herbicidal effect and crop phytotoxicity)	5 (90% or more of herbicidal effect and crop phytotoxicity)	5 (90% or more of herbicidal effect and crop phytotoxicity)	5 (90% or more of herbicidal effect and crop phytotoxicity)	5 (90% or more of herbicidal effect and crop phytotoxicity)	5 (90% or more of herbicidal effect and crop phytotoxicity)	–	–	–	–
N#CCCn1c(C(F)(F)F)ccc(C(=O)C2=C(O)CCCC2=O)c1=O [I-44]	5 (90% or more of herbicidal effect and crop phytotoxicity)	5 (90% or more of herbicidal effect and crop phytotoxicity)	5 (90% or more of herbicidal effect and crop phytotoxicity)	5 (90% or more of herbicidal effect and crop phytotoxicity)	5 (90% or more of herbicidal effect and crop phytotoxicity)	5 (90% or more of herbicidal effect and crop phytotoxicity)	5 (90% or more of herbicidal effect and crop phytotoxicity)	5 (90% or more of herbicidal effect and crop phytotoxicity)	5 (90% or more of herbicidal effect and crop phytotoxicity)	5 (90% or more of herbicidal effect and crop phytotoxicity)	5 (90% or more of herbicidal effect and crop phytotoxicity)	–	–	–	–
CCCS(=O)(=O)Oc1c(C(=O)c2ccc(C(F)(F)F)n(-c3ccc4c(c3)OCO4)c2=O)cnn1C [IV-98]	–	–	–	–	5 (90% or more of herbicidal effect and crop phytotoxicity)	5 (90% or more of herbicidal effect and crop phytotoxicity)	5 (90% or more of herbicidal effect and crop phytotoxicity)	5 (90% or more of herbicidal effect and crop phytotoxicity)	5 (90% or more of herbicidal effect and crop phytotoxicity)	5 (90% or more of herbicidal effect and crop phytotoxicity)	3 (50 to less than 70% of herbicidal effect and crop phytotoxicity)	4 (70 to less than 90% of herbicidal effect and crop phytotoxicity)	5 (90% or more of herbicidal effect and crop phytotoxicity)	5 (90% or more of herbicidal effect and crop phytotoxicity)	5 (90% or more of herbicidal effect and crop phytotoxicity)
CS(=O)(=O)CCCn1c(C(F)(F)F)ccc(C(=O)C2=C(O)CCCC2=O)c1=O [I-71]	5 (90% or more of herbicidal effect and crop phytotoxicity)	5 (90% or more of herbicidal effect and crop phytotoxicity)	5 (90% or more of herbicidal effect and crop phytotoxicity)	5 (90% or more of herbicidal effect and crop phytotoxicity)	5 (90% or more of herbicidal effect and crop phytotoxicity)	5 (90% or more of herbicidal effect and crop phytotoxicity)	5 (90% or more of herbicidal effect and crop phytotoxicity)	5 (90% or more of herbicidal effect and crop phytotoxicity)	5 (90% or more of herbicidal effect and crop phytotoxicity)	5 (90% or more of herbicidal effect and crop phytotoxicity)	5 (90% or more of herbicidal effect and crop phytotoxicity)	–	–	–	–
CCn1c(C(F)(F)F)ccc(C(=O)c2cnn(C)c2O)c1=O [IV-2]	–	–	–	–	5 (90% or more of herbicidal effect and crop phytotoxicity)	5 (90% or more of herbicidal effect and crop phytotoxicity)	5 (90% or more of herbicidal effect and crop phytotoxicity)	5 (90% or more of herbicidal effect and crop phytotoxicity)	5 (90% or more of herbicidal effect and crop phytotoxicity)	5 (90% or more of herbicidal effect and crop phytotoxicity)	5 (90% or more of herbicidal effect and crop phytotoxicity)	5 (90% or more of herbicidal effect and crop phytotoxicity)	5 (90% or more of herbicidal effect and crop phytotoxicity)	5 (90% or more of herbicidal effect and crop phytotoxicity)	5 (90% or more of herbicidal effect and crop phytotoxicity)
